Reference: patent US20240123078A1, “COMPOUNDS AND METHODS FOR MODULATING IMMUNE-RELATED PROTEINS” (Vividion Therapeutics, Inc., priority 2019, published 2024)

Key:
Assay in all cases: Cysteine reactivity ABPP
Assay type in all cases: binding
[1] = molecular target: T1, JAK1 Tyrosine-protein kinase JAK1 C810, C817 (P23458) (Homo sapiens, UniProt P23458)
T1 construct: endogenous in cells; host or cells: primary human T cells
Protocol: (§1) Activated or expanded primary human T cells were re-suspended in RPMI (1×10^6 cells/mL) containing 10% fetal bovine serum (FBS), penicillin (100 U/mL), streptomycin ([…]), and L-glutamine (2 mM). The cells were treated with DMSO or compounds for 3 h, pelleted (524 g, 5 min), washed with PBS, and lysed by sonication (2×8 pulses). Soluble and particulate proteomic fractions were separated by ultracentrifugation (100,000 g, 45 min), and protein concentration was normalized to 1.7 mg/mL using a standard DC protein assay (Bio-Rad). The resulting proteomes were analyzed by competitive isotopic Tandem Orthogonal Proteolysis Activity-Based Protein Profiling (isoTOP-ABPP).
(§2) The heavy/light isoTOP-ABPP ratios (R values) for each unique peptide (DMSO/compound treated) were quantified with in-house CIMAGE software (Weerapana et al., 2010) using default parameters (3 MS1 acquisitions per peak and signal to noise threshold set to 2.5). Site-specific engagement of cysteine residues was assessed by blockade of IA-alkyne probe labeling. […] Ratios for unique peptide sequences were calculated for each experiment; overlapping peptides with the same modified cysteine (e.g., different charge states, elution times or tryptic termini) were grouped together and the median ratio was reported as the final ratio (R). Additionally, ratios for peptide sequences containing multiple cysteines were grouped together. When aggregating data across experimental replicates, the mean of each experimental median R was reported. The peptide ratios reported by CIMAGE were further filtered to ensure the removal or correction of low-quality ratios in each individual dataset. The quality filters applied were the following: removal of half-tryptic peptides, removal of peptides with more than one tryptic miscleaved, removal of peptides with R=20 and only a single MS2 event triggered during the elution of the parent ion, removal of non-unique peptides. Further filtering was then performed as described below for each experiment type.
(§3) Samples (500 μL, 1.7 mg/mL) were treated with iodoacetamide desthiobiotin (IA-DTB, 5 μL of 10 mM stock in DMSO, final concentration: 100 μM) for 1 h at ambient temperature. Ice-cold MeOH (500 μL) and CHCl3 (200 μL) were then added, the mixture was vortexed and centrifuged (10,000 g, 10 min, 4° C.) to afford a protein disc at the interface of CHCl3 and aqueous layers. Both layers were aspirated without perturbing the disk, which was re-suspended in cold methanol (500 μL) and CHCl3 (200 μL) by sonication. The proteins were pelleted (10,000 g, 10 min, 4° C.), and the resulting pellets were re-suspended in a buffer (90 μL) containing 9M urea, 10 mM DTT and 50 mM triethylammonium bicarbonate ( 1/20 dilution of 1.0 M stock solution, pH 8.5) by thorough pipetting up and down. The resulting mixture was heated at 65° C. for 20 min. Sample was cooled to room temp, iodoacetamide (10 μL, 500 mM solution in H2O) was added, and the samples were incubated at 37° C. for 30 min with shaking.
(§4) At individual TMT experiment level, the following filters were applied to remove low-quality peptides: removal of non-unique peptides; removal of half-tryptic peptides; removal of peptides with more than one internal miscleaved site; removal of peptides with low (<10,000) sum of reporter ion intensities for control channels, and peptides with high variation between the replicate control channels (coefficient of variance >0.5). R values (compound-treated vs. DMSO-treated) for each peptide entry were calculated using the reporter ion intensities of DMSO and compound treated TMT channels for each treatment group with a maximum ratio cap of 20. […]

[2] = molecular target: T2, PELP1 Proline-, glutamic acid- and leucine-rich protein 1 C71 (Q8IZL8) (Homo sapiens, UniProt Q8IZL8)
T2 construct: endogenous in cells; host or cells: primary human T cells
T2 sequence (Q8IZL8 whole entry, one chain of several): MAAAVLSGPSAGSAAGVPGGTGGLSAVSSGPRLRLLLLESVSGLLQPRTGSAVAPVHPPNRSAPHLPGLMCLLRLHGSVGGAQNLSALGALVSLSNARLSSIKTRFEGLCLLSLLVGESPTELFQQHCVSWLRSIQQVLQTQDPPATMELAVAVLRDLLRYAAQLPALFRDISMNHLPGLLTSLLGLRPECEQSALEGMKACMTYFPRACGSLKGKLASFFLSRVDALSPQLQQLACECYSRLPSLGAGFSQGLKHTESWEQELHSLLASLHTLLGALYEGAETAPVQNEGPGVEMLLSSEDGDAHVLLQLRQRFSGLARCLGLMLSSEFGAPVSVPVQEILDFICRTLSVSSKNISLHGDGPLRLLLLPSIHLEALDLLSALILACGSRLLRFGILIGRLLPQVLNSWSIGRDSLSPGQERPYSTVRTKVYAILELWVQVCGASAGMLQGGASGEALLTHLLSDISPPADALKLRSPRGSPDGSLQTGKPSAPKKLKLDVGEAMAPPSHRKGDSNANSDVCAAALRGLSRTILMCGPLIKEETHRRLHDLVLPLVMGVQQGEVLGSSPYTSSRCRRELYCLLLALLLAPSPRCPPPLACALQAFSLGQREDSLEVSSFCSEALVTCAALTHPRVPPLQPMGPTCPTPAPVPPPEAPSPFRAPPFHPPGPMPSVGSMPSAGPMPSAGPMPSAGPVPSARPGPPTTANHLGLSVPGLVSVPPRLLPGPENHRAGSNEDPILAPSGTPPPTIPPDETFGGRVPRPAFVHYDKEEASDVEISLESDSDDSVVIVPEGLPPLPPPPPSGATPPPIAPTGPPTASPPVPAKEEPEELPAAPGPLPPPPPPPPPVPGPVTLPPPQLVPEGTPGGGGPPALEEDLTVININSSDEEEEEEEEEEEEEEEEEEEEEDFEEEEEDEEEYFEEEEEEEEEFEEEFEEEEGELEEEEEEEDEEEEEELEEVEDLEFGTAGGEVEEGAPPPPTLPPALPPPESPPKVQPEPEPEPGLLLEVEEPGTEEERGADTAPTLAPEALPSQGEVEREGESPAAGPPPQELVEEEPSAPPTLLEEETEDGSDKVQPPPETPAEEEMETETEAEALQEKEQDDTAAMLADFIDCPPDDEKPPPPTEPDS
Protocol: as §1, §2, §3, §4

[3] = molecular target: T3, PFKFB3 6-phosphofructo-2-kinase/fructose-2,6-bisphosphatase 3 C155 (Q16875) (Homo sapiens, UniProt Q16875)
T3 construct: endogenous in cells; host or cells: primary human T cells
T3 sequence (Q16875 whole entry, one chain of several): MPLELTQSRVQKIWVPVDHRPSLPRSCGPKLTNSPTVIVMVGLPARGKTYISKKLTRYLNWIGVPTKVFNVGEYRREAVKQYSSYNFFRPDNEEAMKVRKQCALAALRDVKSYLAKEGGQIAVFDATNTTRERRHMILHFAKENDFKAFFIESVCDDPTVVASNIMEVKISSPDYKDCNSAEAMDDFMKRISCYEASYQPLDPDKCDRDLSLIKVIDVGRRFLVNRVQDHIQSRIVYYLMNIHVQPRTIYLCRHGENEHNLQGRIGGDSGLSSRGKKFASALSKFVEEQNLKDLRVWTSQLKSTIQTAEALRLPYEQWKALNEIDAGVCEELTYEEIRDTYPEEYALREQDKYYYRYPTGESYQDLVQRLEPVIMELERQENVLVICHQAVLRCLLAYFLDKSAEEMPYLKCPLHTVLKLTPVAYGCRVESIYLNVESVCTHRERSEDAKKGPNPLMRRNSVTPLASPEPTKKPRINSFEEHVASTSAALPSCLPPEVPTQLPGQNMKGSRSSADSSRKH
Protocol: as §1, §2, §3, §4

[4] = molecular target: T4, PTPN11 Tyrosine-protein phosphatase non-receptor type 11 C259 (Q06124) (Homo sapiens, UniProt Q06124)
T4 construct: endogenous in cells; host or cells: primary human T cells
T4 sequence (Q06124 1-593): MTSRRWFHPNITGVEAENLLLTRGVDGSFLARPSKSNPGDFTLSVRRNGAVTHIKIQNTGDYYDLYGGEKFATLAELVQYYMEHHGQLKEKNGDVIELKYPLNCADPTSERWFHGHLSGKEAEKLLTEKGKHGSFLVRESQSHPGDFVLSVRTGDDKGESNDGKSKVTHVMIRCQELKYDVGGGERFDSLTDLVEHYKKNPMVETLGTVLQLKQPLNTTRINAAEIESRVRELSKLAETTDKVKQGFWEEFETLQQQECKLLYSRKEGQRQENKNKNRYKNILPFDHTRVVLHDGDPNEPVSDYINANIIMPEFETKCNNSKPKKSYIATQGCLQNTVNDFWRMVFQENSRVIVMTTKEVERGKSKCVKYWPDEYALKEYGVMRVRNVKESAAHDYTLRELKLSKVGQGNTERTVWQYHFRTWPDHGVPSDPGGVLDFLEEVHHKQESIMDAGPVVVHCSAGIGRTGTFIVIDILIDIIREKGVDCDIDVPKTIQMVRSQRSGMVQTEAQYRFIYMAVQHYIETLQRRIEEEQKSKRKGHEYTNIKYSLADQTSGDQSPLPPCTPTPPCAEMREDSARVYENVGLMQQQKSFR
Protocol: as §1, §2, §3, §4

[5] = molecular target: T5, TRANK1 TPR and ankyrin repeat-containing protein 1 C1319 (O15050) (Homo sapiens, UniProt O15050)
T5 construct: Soluble and particulate proteomic fractions were separated by ultracentrifugation; endogenous in cells; host or cells: primary human T cells
Protocol: as §1, §2, §3, §4

[6] = molecular target: T6, TYK2 Non-receptor tyrosine-protein kinase TYK2 C838 (P29597) (Homo sapiens, UniProt P29597)
T6 construct: endogenous in cells; host or cells: primary human T cells
T6 sequence (P29597 whole entry): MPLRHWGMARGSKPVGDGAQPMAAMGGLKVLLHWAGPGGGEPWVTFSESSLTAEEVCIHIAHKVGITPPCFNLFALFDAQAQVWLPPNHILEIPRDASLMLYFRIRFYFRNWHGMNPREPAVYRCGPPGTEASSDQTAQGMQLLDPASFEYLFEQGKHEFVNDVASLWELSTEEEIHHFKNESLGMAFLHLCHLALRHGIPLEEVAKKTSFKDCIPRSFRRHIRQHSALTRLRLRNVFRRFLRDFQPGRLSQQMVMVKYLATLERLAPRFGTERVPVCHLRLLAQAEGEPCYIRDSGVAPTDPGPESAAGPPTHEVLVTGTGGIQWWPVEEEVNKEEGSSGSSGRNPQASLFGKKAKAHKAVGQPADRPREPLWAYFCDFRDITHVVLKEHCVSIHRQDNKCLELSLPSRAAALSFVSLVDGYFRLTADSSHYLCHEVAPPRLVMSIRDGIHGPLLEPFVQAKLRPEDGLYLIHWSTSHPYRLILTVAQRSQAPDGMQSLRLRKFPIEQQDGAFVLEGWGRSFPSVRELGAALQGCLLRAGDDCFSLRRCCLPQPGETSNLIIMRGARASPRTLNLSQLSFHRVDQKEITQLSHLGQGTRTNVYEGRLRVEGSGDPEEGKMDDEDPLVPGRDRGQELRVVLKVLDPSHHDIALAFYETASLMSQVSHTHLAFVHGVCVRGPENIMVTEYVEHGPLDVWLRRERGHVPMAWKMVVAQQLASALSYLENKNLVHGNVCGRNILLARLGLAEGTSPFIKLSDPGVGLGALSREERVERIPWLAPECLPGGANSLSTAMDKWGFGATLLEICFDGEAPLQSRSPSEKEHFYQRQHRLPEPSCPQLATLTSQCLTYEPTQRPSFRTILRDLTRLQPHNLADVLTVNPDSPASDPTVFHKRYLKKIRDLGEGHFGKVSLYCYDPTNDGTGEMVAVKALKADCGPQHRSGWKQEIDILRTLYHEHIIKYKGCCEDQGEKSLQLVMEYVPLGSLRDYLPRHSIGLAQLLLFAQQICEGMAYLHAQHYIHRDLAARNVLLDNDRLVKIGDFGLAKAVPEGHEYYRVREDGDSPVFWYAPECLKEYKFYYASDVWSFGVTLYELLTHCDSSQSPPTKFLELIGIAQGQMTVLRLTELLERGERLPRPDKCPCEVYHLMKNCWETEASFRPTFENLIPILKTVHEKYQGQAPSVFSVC
Protocol: as §1, §2, §3, §4

T1 sequence (P23458 whole entry): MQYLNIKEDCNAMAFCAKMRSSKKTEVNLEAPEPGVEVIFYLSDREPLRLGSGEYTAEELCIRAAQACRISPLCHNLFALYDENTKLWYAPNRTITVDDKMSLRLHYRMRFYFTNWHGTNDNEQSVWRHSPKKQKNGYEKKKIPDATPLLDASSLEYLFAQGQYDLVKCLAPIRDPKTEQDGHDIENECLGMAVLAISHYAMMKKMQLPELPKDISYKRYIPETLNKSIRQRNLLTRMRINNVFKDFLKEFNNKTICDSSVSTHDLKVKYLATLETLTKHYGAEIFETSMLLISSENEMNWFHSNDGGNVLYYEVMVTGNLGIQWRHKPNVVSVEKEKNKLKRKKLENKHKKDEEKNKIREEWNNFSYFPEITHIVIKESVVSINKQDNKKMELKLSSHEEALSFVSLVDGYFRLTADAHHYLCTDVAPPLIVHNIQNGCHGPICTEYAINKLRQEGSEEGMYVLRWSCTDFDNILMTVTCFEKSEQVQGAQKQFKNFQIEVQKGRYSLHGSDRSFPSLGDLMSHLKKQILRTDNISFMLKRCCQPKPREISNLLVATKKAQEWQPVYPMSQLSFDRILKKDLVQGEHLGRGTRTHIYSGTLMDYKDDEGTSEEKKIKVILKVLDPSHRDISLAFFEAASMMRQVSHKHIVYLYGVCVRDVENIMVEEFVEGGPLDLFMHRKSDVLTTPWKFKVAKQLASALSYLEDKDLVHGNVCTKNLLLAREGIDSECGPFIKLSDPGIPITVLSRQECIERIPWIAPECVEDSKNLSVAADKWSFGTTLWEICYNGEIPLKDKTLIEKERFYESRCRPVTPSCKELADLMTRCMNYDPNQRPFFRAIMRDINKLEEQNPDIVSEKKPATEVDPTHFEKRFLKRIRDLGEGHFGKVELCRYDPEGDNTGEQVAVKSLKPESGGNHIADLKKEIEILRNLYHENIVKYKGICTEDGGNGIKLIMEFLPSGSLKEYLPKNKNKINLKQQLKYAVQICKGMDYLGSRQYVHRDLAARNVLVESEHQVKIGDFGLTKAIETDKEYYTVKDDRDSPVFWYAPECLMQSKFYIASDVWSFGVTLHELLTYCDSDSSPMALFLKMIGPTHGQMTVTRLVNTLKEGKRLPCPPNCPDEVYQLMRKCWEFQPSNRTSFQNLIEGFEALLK

Row | Cysteine reactivity proteomic data ([1]; 100 μM) | Cysteine reactivity proteomic data ([1]; 500 μM) | Cysteine reactivity proteomic data [2]; 100 | Cysteine reactivity proteomic data ([3]; 100 μM) | Cysteine reactivity proteomic data ([3]; 500 μM) | Cysteine reactivity proteomic data ([4]; 100 μM) | Cysteine reactivity proteomic data ([4]; 500 μM) | Cysteine reactivity proteomic data [5]; 100 | Cysteine reactivity proteomic data ([6]; 100 μM) | Cysteine reactivity proteomic data ([6]; 500 μM) | Cysteine reactivity proteomic data ([2]; 500 μM) | Cysteine reactivity proteomic data ([5]; 500 μM) | Compound
1 | 18.7286 | 90.3525 | 71.33 | 26.69 | 90.3507 | 16.62 | 84.5074 | 82.88 | 78.9759 | 98.8468 |  |  | O=C(CCl)N1CCN(S(=O)(=O)c2ccc(-c3ccncc3)cc2)CC1 [Compound B9]
2 |  | 39.2015 |  |  | −24.3435 |  | 28.7525 |  |  | 22.4158 | 1.71 | 6.5 | C=CC(=O)N(Cc1cccc(Cl)c1Cl)c1ccc(Oc2ccccc2)c(C(F)(F)F)c1 [Compound K4]
